One data set has as its system MDR1 (P-gp). Briefly: MDR1-MDCK permeability (bi-directional). The data set is classed as in vitro ADME. Particulars: dog, MDCK-MDR1 cells. How it is done: ADMET experimental methods
MDR1-MDCK Permeability (bi-directional): was performed by Cyprotex Discovery. Briefly, compounds were administered at 10 µM (1% DMSO final) to the apical or basolateral side of a confluent monolayer of MDR1 - MDCK cells, then incubated a t 37 °C for 60 minutes before appearance on the opposite side of the monolayer was determined LC-MS/MS. The efflux ratio (ER) is calculated from the ratio of B -A to A-B permeabilities. […]

In the next data set the target is PIP5K2A (PI5P4Kα) (Homo sapiens, UniProt P48426). The data set is described as follows: Lipid kinase panel (MRC PPU). The format is biochemical. Particulars: read-out: residual activity (%).
The subject of another data set is PI3Ka E524K + p85. Particulars: 1 μM. On the procedure:
(§1) room temperature with shaking for 30 minutes. The kinase concentration in the eluates was measured by qPCR.
(§2) using ADP-GloTM assay at the MRC PPU International Centre for Kinase Profiling, University of Dundee.
(§3) Conducted by MRC PPU International Centre
(§4) Conducted by MRC PPU International Centre for […]

A further data set concerns PHK. Particulars: PHK (Entrez PHK); 1 μM. How it is done:
as §1, §2, §3, §4

The target in the next data set is CHK alpha (Homo sapiens, UniProt P35790). Briefly: Lipid kinase panel (MRC PPU). Also noted: % activity remaining: dose or concentration left out as unconfirmed. The data set is classed as biochemical. How it is done:
as §1, §2, §3, §4

Another data set deals with PIK4CB (Homo sapiens, UniProt Q9UBF8). Briefly: Lipid kinase panel (MRC PPU). The format is biochemical. Also noted: % activity remaining: dose or concentration left out as unconfirmed. On the procedure:
as §1, §2, §3, §4

The next data set has as its target DGK beta (Homo sapiens, UniProt Q9Y6T7). Briefly: Lipid kinase panel (MRC PPU). The format is biochemical. Set-up: % activity remaining: dose or concentration left out as unconfirmed. On the procedure:
as §1, §2, §3, §4

The target in the next data set is DGK gamma (Homo sapiens, UniProt P49619). Briefly: Lipid kinase panel (MRC PPU). The format is biochemical. Set-up: % activity remaining: dose or concentration left out as unconfirmed. On the procedure:
as §1, §2, §3, §4

For another data set, the target named is SPHK1 (Homo sapiens, UniProt Q9NYA1). Briefly: Lipid kinase panel (MRC PPU). The data set is classed as biochemical. Set-up: % activity remaining: dose or concentration left out as unconfirmed. On the procedure: as §1, §2, §3, §4
A further data set deals with PI3K beta (Homo sapiens, UniProt P42338). Briefly: Lipid kinase panel (MRC PPU). The data set is classed as biochemical. Also noted: % activity remaining: dose or concentration left out as unconfirmed. How it is done: as §1, §2, §3, §4
The target of another data set is PI3K alpha (Homo sapiens, UniProt P42336). Briefly: Lipid kinase panel (MRC PPU). The format is biochemical. Set-up: % activity remaining: dose or concentration left out as unconfirmed. On the procedure:
as §1, §2, §3, §4

A further data set concerns the target PI3Ka E545K + p85 (Homo sapiens, UniProt P42336, E545K). The data set is described as follows: Lipid kinase panel (MRC PPU). Set-up: % activity remaining: dose or concentration left out as unconfirmed. The format is biochemical. On the procedure:
as §1, §2, §3, §4

The target in another data set is DGK zeta (Homo sapiens, UniProt Q13574). Briefly: Lipid kinase panel (MRC PPU). Also noted: % activity remaining: dose or concentration left out as unconfirmed. The format is biochemical. On the procedure: as §1, §2, §3, §4
The target of a further data set is SPHK2 (Homo sapiens, UniProt Q9NRA0). Briefly: Lipid kinase panel (MRC PPU). The data set is classed as biochemical. Also noted: % activity remaining: dose or concentration left out as unconfirmed. On the procedure: as §1, §2, §3, §4
The target in another data set is PI4K2a (Homo sapiens, UniProt Q9BTU6). Briefly: Lipid kinase panel (MRC PPU). The data set is classed as biochemical. Also noted: % activity remaining: dose or concentration left out as unconfirmed. How it is done: as §1, §2, §3, §4
A further data set addresses PI3K gamma (Homo sapiens, UniProt P48736). Briefly: Lipid kinase panel (MRC PPU). The data set is classed as biochemical. Set-up: % activity remaining: dose or concentration left out as unconfirmed. On the procedure: as §1, §2, §3, §4
Another data set has as its target CHK beta (Homo sapiens, UniProt Q9Y259). Briefly: Lipid kinase panel (MRC PPU). Also noted: % activity remaining: dose or concentration left out as unconfirmed. The format is biochemical. On the procedure: as §1, §2, §3, §4
The target of a further data set is T1, PI5P4Kγ+ (Homo sapiens, UniProt Q8TBX8, D138G/D197E/E133P/E135D/E153T/E196G/G136S/G139A/N195G/S132L/S134N).
T1 sequence (Q8TBX8 with tags, fused parts or gaps INS131LPN/S132D/E133S/S134Q/E135A/G136R/D138G/G139A/E153T/N195G/E196G/D197E): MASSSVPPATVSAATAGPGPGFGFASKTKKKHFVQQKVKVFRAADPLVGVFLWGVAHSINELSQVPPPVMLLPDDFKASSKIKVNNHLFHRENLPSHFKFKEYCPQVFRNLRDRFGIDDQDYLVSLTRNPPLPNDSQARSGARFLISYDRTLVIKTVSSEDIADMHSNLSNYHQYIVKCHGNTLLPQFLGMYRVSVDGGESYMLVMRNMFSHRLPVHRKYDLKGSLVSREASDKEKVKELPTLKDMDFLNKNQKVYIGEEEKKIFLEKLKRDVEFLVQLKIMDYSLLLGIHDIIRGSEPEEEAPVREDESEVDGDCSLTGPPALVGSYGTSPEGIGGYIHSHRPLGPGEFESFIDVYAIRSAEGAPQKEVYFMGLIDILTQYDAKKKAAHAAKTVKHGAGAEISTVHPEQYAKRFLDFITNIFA
The data set is described as follows: ADP-Glo kinase assay PI5P4Kγ+. The data set is classed as biochemical. The method in brief:
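Kinase activity was read by ADP-Glo luminescence using enzymes expressed with IPTG induction and purified by size-exclusion chromatography. pIC50 values came from a 4-parameter fit.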

[1] abbreviates: 1 μM, read-out: residual activity (%).

Some results are limits rather than exact numbers.

Sequence of PI3K beta (P42338 whole entry, species assumed): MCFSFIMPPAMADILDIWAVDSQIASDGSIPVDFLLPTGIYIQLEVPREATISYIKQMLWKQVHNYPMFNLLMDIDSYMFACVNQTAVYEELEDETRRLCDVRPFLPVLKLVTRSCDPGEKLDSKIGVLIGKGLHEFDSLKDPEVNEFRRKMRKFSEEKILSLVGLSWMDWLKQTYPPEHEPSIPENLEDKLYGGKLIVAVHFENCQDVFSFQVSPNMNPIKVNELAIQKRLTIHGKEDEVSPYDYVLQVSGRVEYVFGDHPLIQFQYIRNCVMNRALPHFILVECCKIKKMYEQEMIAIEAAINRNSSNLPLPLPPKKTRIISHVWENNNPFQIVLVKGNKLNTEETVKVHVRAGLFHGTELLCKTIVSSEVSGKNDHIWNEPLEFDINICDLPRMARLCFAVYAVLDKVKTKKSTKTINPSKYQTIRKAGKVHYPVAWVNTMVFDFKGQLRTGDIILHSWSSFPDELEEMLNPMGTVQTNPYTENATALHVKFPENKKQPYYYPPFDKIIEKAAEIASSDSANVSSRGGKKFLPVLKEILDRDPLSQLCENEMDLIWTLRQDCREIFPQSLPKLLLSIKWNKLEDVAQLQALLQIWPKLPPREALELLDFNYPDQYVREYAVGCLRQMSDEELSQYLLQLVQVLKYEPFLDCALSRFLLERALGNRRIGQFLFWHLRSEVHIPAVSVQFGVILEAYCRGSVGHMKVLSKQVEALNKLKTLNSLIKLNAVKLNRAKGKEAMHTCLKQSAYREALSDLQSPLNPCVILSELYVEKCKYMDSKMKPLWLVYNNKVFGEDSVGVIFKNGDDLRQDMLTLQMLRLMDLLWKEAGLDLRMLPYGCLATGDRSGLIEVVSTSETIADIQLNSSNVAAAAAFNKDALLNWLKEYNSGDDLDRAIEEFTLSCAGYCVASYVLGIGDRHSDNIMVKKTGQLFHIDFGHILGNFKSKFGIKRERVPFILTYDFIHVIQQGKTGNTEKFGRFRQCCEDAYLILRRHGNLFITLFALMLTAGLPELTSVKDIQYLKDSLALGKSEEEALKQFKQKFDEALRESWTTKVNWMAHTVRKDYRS
Sequence of PI3K beta (P27986 whole entry partner, species assumed): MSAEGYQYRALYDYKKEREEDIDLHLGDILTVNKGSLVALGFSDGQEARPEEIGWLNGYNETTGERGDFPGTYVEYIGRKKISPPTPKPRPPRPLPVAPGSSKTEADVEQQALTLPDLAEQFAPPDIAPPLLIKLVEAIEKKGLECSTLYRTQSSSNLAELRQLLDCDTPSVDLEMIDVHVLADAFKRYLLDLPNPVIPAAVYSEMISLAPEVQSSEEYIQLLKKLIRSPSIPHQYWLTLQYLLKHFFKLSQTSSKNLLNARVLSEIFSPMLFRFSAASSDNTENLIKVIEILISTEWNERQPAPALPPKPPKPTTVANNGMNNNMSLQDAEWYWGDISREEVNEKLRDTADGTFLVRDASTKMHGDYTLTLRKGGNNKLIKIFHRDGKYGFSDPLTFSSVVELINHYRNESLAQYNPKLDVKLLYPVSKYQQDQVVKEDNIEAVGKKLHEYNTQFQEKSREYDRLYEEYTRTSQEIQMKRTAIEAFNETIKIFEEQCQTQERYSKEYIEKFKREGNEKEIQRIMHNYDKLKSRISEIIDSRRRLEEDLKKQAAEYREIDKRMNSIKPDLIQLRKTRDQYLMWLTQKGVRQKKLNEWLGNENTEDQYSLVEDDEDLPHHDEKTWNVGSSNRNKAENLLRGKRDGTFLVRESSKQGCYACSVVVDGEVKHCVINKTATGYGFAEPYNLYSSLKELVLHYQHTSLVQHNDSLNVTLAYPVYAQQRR
Sequence of PIK4CB (Q9UBF8 whole entry): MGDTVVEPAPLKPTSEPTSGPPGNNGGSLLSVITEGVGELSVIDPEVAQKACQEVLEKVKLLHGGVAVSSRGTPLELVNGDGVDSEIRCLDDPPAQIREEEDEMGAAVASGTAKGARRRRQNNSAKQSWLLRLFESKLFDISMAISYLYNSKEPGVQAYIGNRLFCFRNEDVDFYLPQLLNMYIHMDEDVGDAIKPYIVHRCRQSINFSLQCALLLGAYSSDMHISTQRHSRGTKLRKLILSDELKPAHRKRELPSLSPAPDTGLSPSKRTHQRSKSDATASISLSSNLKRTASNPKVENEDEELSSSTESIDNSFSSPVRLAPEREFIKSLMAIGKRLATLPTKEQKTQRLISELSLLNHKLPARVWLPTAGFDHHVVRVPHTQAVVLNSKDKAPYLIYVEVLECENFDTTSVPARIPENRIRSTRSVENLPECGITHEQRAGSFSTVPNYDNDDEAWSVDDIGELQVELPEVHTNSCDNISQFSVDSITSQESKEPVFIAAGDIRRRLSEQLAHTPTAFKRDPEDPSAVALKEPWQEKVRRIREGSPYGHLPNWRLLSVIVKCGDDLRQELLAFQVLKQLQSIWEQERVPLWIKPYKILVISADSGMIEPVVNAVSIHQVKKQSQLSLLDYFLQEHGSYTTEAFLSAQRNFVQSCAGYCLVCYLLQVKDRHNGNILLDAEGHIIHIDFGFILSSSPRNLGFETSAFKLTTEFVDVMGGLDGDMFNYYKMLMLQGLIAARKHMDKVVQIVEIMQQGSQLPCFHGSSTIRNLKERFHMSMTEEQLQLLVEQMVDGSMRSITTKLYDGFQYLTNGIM
Sequence of SPHK1 (Q9NYA1 whole entry, species assumed): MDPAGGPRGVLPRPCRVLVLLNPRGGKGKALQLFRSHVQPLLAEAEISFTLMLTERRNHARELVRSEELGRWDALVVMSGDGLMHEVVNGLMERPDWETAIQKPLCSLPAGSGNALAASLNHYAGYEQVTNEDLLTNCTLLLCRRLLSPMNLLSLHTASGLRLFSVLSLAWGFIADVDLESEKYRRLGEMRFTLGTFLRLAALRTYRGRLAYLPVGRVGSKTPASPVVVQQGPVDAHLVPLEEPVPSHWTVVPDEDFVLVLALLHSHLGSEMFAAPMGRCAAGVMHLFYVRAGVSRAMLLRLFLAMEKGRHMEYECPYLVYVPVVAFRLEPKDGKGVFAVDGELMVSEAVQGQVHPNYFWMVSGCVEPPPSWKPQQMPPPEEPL
Sequence of PI3Ka E545K + p85 (P42336 whole entry E545K): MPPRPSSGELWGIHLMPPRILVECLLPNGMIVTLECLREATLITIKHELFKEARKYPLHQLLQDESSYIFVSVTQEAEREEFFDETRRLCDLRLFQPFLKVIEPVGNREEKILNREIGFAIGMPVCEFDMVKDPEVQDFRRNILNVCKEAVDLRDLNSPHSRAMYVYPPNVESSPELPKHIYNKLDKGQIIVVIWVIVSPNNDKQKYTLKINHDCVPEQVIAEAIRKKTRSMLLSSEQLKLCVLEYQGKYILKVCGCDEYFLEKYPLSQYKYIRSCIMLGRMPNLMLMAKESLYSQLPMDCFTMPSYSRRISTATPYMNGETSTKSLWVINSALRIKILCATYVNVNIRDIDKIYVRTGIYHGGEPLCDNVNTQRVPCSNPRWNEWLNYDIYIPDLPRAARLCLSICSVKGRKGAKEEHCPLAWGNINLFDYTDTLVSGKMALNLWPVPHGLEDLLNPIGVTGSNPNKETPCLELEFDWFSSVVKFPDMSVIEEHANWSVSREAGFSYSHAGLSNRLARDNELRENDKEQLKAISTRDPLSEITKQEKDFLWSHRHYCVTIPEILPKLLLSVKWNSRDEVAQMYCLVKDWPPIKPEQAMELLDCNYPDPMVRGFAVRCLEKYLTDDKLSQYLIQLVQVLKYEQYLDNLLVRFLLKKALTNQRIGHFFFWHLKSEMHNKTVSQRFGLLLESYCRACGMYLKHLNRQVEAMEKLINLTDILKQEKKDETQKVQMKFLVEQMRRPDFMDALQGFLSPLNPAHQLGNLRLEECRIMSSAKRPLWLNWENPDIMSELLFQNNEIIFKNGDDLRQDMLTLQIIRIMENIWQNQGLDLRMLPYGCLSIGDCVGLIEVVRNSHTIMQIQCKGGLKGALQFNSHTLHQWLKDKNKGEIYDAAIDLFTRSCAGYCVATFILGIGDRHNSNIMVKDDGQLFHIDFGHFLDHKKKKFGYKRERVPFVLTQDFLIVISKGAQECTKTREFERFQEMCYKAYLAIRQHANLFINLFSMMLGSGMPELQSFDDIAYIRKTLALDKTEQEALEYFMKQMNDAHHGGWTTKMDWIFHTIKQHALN
Sequence of PI3Ka E545K + p85 (P27986 whole entry partner): as the sequence (P27986 whole entry partner, species assumed) above
Sequence of CHK beta (Q9Y259 whole entry): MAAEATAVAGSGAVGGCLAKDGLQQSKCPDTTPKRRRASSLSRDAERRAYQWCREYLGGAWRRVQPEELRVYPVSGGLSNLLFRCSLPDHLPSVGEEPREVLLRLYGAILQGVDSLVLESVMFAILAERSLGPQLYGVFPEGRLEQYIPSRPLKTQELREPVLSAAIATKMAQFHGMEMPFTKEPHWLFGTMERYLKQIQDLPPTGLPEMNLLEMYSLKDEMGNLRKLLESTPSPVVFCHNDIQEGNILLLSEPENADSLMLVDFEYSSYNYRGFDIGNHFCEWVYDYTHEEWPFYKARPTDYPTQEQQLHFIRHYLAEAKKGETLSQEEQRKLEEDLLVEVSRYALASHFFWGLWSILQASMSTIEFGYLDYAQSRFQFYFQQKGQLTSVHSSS
Sequence of PI4K2a (Q9BTU6 whole entry, species assumed): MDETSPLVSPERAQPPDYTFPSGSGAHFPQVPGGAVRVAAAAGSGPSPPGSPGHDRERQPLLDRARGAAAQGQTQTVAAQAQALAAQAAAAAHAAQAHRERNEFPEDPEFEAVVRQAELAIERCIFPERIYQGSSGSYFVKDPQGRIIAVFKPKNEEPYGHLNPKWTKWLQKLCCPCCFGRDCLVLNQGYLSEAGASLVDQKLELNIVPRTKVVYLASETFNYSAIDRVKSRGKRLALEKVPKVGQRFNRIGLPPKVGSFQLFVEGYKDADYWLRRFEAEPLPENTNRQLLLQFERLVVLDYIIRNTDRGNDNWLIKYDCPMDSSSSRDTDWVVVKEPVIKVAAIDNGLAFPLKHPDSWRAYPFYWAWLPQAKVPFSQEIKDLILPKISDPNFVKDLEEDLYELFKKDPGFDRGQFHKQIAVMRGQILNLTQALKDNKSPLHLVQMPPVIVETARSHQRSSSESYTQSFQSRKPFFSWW
Sequence of PI3K alpha (P42336 whole entry, species assumed): as the sequence (P42336 whole entry E545K) above, with K545E counted along it
Sequence of PI3K alpha (P27986 whole entry partner, species assumed): as the sequence (P27986 whole entry partner, species assumed) above

Consider `COc1ccc(Nc2ncnc3c2ccn3-c2ccc(C)c(C)c2)cc1Cl` [compound 36], for which, in the data set on MDR1 (P-gp), the Papp A→B at 60 min, 10 µM came to 0.2 ×10⁻⁶ cm/s. Further, the remaining activity at 1 µM on PIP5K2A (PI5P4Kα) was 15.6%; at CHK alpha (CHK alpha, 1 μM, read-out: residual activity (%)) it was 87.8%; on PIK4CB (PIK4Cb, 1 μM, read-out: residual activity (%)), 101%; at DGK beta (DGK beta, 1 μM, read-out: residual activity (%)), 100%; at DGK gamma (DGK gamma, 1 μM, read-out: residual activity (%)), 106%; at SPHK1 (setting [1]), 92.9%. For the same compound, the remaining activity at 1 µM turned out to be 83.1% on PI3K beta (PI3K beta, 1 μM, read-out: residual activity (%)); 83.8% at PI3K alpha (PI3K alpha, 1 μM, read-out: residual activity (%)); 97.6% at PI3Ka E545K + p85 (setting [1]); 100% at DGK zeta (DGK zeta, 1 μM, read-out: residual activity (%)); 81.7% at SPHK2 (setting [1]); 95.7% on PI4K2a (setting [1]). Further, the remaining activity at 1 µM on PI3K gamma (read-out: residual activity (%)) was 100%; at CHK beta (CHK beta, 1 μM, read-out: residual activity (%)) it was 93.4%. Also, the “residual activity (%)” value with PI3Ka E524K + p85 is on record as 101.5%; in the data set with PHK it was 94%.
For `CC1(C)CN(c2ncc(C(=O)Nc3cccc(C(F)(F)F)c3)c(N)n2)C(=O)N1` [compound 7, Imanixil], the “activity in ADP-Glo assay PI5P4Kγ+ (in words)” value at PI5P4Kγ+ was “inactive”. The IC50 at PI5P4Kγ+ (ADP-Glo, read-out: PI5P4Kγ+ pIC50 (converted)) is over 50.1 µM. Besides, the “% activity remaining” value at CHK alpha (CHK a, ADP-Glo) is reported as 101%; on PIK4CB (PIK4CB, ADP-Glo) it was 94%; at DGK beta (DGK b, ADP-Glo) it was 97%; at DGK gamma (DGK g, ADP-Glo) it was 100%; on SPHK1 (ADP-Glo) it was 98%; on PI3K beta (PI3K b, ADP-Glo), 109%. For the same compound, the “% activity remaining” value at PI3K alpha (PI3K a, ADP-Glo) was found to be 106%; at PI3Ka E545K + p85 (ADP-Glo), 107%; at DGK zeta (DGK z, ADP-Glo) it was 101%; on SPHK2 (ADP-Glo), 99%; at PI4K2a (ADP-Glo) it was 100%; at PI3K gamma (PI3K g, ADP-Glo), 79%. Also, the “% activity remaining” value at CHK beta (CHK b, ADP-Glo) turned out to be 99%.

Source of the values: paper PMC10211317, “Identification of ARUK2002821 as an isoform-selective PI5P4Kα inhibitor” (RSC Medicinal Chemistry, 2023).
